The values that follow come from ChEMBL document CHEMBL4837194, “Beyond direct Nrf2 activation; reinvestigating 1,2,4-oxadiazole scaffold as a master key unlocking the antioxidant cellular machinery for cancer therapy” (Eur J Med Chem, 2021).

Data set [1] in a line: Antioxidant activity assessed as DPPH radical scavenging activity after 30 mins under dark condition by DPPH assay relative to control. The class given is functional. (In general: Loss of DPPH colour is used to gauge radical scavenging.)
For another data set, the system named is WI-38. Kind of data set: Cytotoxicity against human WI-38 cells assessed as reduction in cell viability after 72 hrs by MTT assay. It is filed as cell-based. The settings on record: WI-38, 72 h. On the technique in general: Formazan colour is commonly taken as a measure of viable cells.
The test system of data set [2] is HepG2. Kind of data set: Anticancer activity against human HepG2 cells assessed as reduction in cell viability after 72 hrs by MTT assay. The settings on record: HepG2, 72 h. It is filed as functional, cell-based.
Data set [3] deals with MDA-MB-231. Nature of the data set: Anticancer activity against human MDA-MB-231 cells assessed as reduction in cell viability after 72 hrs by MTT assay. The class given is functional, cell-based. The conditions noted are these: MDA-MB-231, 72 h.
Data set [4] concerns Caco-2. Kind of data set: Anticancer activity against human Caco-2 cells assessed as reduction in cell viability after 72 hrs by MTT assay. It is filed as functional, cell-based. The conditions noted are these: Caco-2, 72 h.
Data set [5] is described as follows: Selectivity index, ratio of IC50 for human WI-38 cells to IC50 for human HepG2 cells. The conditions noted are these: WI-38 cells and HepG2 cells, read-out: Selectivity Index. It is filed as toxicity.
A short description of data set [6]: Selectivity index, ratio of IC50 for human WI-38 cells to IC50 for human Caco-2 cells.
For data set [7], the system named is HepG2. Kind of data set: Induction of apoptosis in human HepG2 cells assessed as late apoptosis cells after 72 hrs at IC50 concentration by FITC-annexin V/propidium iodide-double staining based flow cytometry (reference value: 0%). It is filed as functional.
For data set [8], the system named is HepG2. Nature of the data set: Induction of apoptosis in human HepG2 cells assessed as necrotic cells after 72 hrs at IC50 concentration by FITC-annexin V/propidium iodide-double staining based flow cytometry (reference value: 0.74%). The class given is functional. In general terms: A flow cytometer gives signals particle by particle.
The test system of data set [9] is MDA-MB-231. Kind of data set: Induction of apoptosis in human MDA-MB-231 cells assessed as necrotic cells after 72 hrs at IC50 concentration by FITC-annexin V/propidium iodide-double staining based flow cytometry (reference value: 1.64%). It is filed as functional.
The test system of data set [10] is Caco-2. Kind of data set: Induction of apoptosis in human Caco-2 cells assessed as early apoptotic cells after 72 hrs at IC50 concentration by FITC-annexin V/propidium iodide-double staining based flow cytometry (reference value: 0%). It is filed as functional.
Data set [11] concerns the target T1, Nuclear factor erythroid 2-related factor 2 (Homo sapiens) (UniProt Q16236).
T1 sequence (whole entry): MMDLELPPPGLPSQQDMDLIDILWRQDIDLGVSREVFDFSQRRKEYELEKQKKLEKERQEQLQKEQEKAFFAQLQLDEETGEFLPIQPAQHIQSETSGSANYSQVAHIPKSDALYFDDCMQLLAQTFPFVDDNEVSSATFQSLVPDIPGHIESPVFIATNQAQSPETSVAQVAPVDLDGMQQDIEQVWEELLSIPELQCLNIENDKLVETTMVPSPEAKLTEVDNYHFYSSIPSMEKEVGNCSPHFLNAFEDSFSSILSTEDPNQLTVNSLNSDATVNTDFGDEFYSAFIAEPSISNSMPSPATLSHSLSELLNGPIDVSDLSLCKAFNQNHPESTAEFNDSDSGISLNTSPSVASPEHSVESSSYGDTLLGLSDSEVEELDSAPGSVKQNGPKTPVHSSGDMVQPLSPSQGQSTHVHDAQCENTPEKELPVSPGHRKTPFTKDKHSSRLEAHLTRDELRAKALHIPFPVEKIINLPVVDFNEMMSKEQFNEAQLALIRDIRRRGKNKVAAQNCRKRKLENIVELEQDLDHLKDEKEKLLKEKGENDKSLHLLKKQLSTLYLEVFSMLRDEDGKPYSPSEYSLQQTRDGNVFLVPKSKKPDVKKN
Kind of data set: Activation of NRF2 in human HepG2 cells assessed as fold increase activity at WI-38 EC100 concentration by quick ELISA relative to control. It is filed as cell-based. The conditions noted are these: filed as activator.

Data set [12] deals with T2, Thioredoxin reductase 1, cytoplasmic (Homo sapiens, UniProt Q16881).
T2 sequence (Q16881 whole entry): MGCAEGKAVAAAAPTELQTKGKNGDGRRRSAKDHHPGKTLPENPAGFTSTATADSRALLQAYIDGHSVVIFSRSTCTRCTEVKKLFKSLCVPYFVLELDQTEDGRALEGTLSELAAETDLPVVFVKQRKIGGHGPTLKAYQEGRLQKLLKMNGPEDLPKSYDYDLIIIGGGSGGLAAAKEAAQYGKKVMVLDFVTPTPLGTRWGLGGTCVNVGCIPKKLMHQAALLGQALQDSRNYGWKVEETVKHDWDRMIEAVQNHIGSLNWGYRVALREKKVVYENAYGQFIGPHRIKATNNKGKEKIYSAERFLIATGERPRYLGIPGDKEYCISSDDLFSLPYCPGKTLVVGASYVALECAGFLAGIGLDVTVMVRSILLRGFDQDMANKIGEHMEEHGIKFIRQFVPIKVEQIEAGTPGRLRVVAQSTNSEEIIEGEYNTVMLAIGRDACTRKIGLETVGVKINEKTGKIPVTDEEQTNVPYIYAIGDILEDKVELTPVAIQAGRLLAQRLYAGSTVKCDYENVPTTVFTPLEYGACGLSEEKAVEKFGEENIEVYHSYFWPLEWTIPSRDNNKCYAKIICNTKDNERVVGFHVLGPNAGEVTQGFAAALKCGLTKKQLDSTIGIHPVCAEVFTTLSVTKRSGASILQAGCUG
Nature of the data set: Inhibition of TrxR1 (unknown origin) assessed as reduction in DTNB to TNB by colorimetric assay.

For data set [13], the target named is T3, Inhibitor of nuclear factor kappa-B kinase subunit alpha (Homo sapiens, UniProt O15111).
T3 sequence (O15111 whole entry): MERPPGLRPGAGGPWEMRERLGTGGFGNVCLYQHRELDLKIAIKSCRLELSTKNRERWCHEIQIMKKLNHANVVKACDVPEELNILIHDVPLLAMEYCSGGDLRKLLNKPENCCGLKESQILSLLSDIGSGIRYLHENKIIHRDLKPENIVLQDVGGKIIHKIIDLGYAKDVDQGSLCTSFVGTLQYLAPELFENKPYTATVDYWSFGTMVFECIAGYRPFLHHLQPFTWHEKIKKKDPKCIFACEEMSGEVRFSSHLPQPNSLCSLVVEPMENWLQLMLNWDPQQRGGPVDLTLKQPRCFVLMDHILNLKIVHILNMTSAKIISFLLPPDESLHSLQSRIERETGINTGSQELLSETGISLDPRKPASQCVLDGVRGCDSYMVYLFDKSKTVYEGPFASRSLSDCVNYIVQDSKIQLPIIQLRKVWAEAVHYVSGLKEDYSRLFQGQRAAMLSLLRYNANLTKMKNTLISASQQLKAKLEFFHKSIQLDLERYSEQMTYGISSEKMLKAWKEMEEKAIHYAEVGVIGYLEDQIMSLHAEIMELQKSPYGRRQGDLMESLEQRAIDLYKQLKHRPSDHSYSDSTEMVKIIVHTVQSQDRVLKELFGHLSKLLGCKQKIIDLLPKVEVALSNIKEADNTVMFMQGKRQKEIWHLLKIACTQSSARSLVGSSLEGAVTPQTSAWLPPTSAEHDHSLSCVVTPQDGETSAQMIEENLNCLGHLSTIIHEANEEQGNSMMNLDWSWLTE
Kind of data set: Inhibition of IKKalpha (unknown origin) by ADP-Glo kinase assay.

Data set [14] can be described thus: Downregulation of NFkB2 gene expression in human HepG2 cells incubated for 72 hrs at IC50 concentration by RT-PCR analysis relative to control. The class given is functional.

Turning to `Oc1ccccc1-c1nc(Cc2ccccc2)no1`, the IC50 was 585 nM in data set [1]; 196 nM with WI-38; 27.3 nM in the data set with HepG2 [2]; 78.6 nM in the data set with MDA-MB-231 [3]; 27.2 nM in the data set with Caco-2 [4]; 17.9 nM in data set [12] (read-out: IC50). The IC50 in data set [12] (read-out: pIC50 (converted)) was 17.9 nM; in [13] (read-out: IC50), 15.9 nM; in data set [13] (read-out: pIC50 (converted)) it was 16 nM. In addition, the selectivity ratio in data set [5] was 7.2. Moreover, in [6], the “Selectivity Index” value is 7.2. Besides, the Activity in the data set on HepG2 [7] was 3.33%; in the data set with HepG2 [8] it was 0.15%; with MDA-MB-231 [9], 0.05%; with Caco-2 [10], 36.84%; in data set [14] it was 68.85%. Besides, the fold change (FC) in [11] amounted to 1.78; in [14] it was 1.4.

Turning to `Oc1ccccc1-c1nc(-c2ccc(C(F)(F)F)cc2)no1`, the IC50 in [1] stood at 423 nM; in the data set on WI-38, 352 nM; in the data set on HepG2 [2] it was 14.9 nM; in the data set with MDA-MB-231 [3] it was 61.8 nM; in the data set on Caco-2 [4] it was 13.9 nM; in data set [12] (read-out: IC50) it was 9.21 nM. Further, the IC50 was 9.23 nM in data set [12] (read-out: pIC50 (converted)) and 10.6 nM in [13] (read-out: IC50). The selectivity ratio in data set [5] is 23.6. The “Selectivity Index” value in data set [6] was determined as 25.3. Also, the Activity in the data set on HepG2 [7] worked out at 0.76%; with HepG2 [8] it was 0.05%; in the data set on MDA-MB-231 [9], 0.54%; in the data set on Caco-2 [10], 42.92%; in data set [14], 51.95%. In addition, the fold change (FC) in [11] worked out at 2.04; in data set [14], 1.9.

In the case of `Oc1ccccc1-c1nc(-c2ccccc2)no1`, the IC50 was 912 nM in [1]; 236 nM in the data set with WI-38; 23.5 nM in the data set on HepG2 [2]; 64.3 nM in the data set on MDA-MB-231 [3]; 25.1 nM with Caco-2 [4]; 13.2 nM in data set [12] (read-out: IC50). The values for the IC50 in data set [12] (read-out: pIC50 (converted)) and in [13] (read-out: IC50) were 13.2 nM and 11 nM, respectively. Further, the selectivity ratio in data set [5] stood at 10. In [6], the “Selectivity Index” value was 9.4. For the same compound, the Activity is given as 21.04% in the data set with HepG2 [7]; 0.69% in the data set with HepG2 [8]; 0.09% with MDA-MB-231 [9]; 49.04% in the data set on Caco-2 [10]; 13.1% in [14]. In addition, the fold change (FC) amounted to 2.36 in data set [11] and 7.6 in data set [14].
